Entries after “also recorded” stand apart in the source; their conditions may differ.
Experiments:
Type in all cases: physicochemical
[1] = Stability test (appearance, related substances, XRPD) under high humidity, 60° C. and light
Method: Experiment Method: The test product was placed under high humidity (25° C./RH 92.5% or 40° C./RH 75%) conditions or under 60° C. conditions for 10 days, and samples were taken on the 5th and 10th days, respectively; and placed under light (4500 LX±500 LX) conditions for 10 days, a sample was taken on the 10th day and tested for related substances and XRPD, and the same was compared with the sample of day 0.
Relevant substances: Measured according to Chinese Pharmacopoeia, 2015 edition, Volume II, Appendix V D High Performance Liquid Chromatography.
XRPD measurement: Measured according to Chinese Pharmacopoeia, 2015 edition, Volume IV, 0451 X-Ray Diffraction Method.
The test product was placed under 25° C./RH 92.5% or under 60° C. conditions for 10 days, and was sampled on the 5th and 10th days respectively; the test product was placed under light (4500 LX±500 LX) or 40° C./RH 75% conditions for 10 days, sampled on the 10th day and tested for related substances and XRPD, and compared with the sample of day 0.
Related substances: Measured according to Chinese Pharmacopoeia, 2015 edition, Volume II, Appendix V D High Performance Liquid Chromatography.
XRPD Measurement: Chinese Pharmacopoeia, 2015 edition, Volume IV, 0451 X-Ray Diffraction Method.

Hygroscopicity test = settings: Chinese Pharmacopoeia 2015, 9103
From the text: Measurement method: Measured according to Chinese Pharmacopoeia, 2015 edition, Volume IV, General Principles, 9103 Guiding Principles for Hygroscopicity Test on Drugs.

[2] = Particle size measurement (laser particle size analyzer); settings: water dispersant, Tween 80
Method: An appropriate amount of the test product was taken, 0.1 mL of a 1% Tween 80 solution was added to reduce the surface tension, and water was used as a dispersant to prepare a uniformly dispersed suspension. The same was placed in a sample dispersion device, the stirring speed was adjusted to 2000 rpm, ultrasonication was carried out for 2 min at an ultrasonic frequency of 7 KHz, and measurement was carried out.

[3] = Compressibility experiment (tablet hardness vs tablet thickness); settings: for Maximum tablet hardness: as tablet thickness decreases (tableting force increases)
From the text: The change of tablet hardness with tablet thickness was investigated, and compressibility was compared.

Tablet disintegration = settings: 40 mg tablet with adjuvants
From the text: (§1) The disintegration and dissolution was investigated under the following conditions.
(§2) Dissolution Method: Paddle method (Chinese Pharmacopoeia, 2015 edition, Volume IV, 0931 Dissolution and Release Measurement methods, Method II); medium: 0.2% SDS aqueous solution; and rotation speed: 50 r/min.

[4] = Tablet dissolution, paddle method; settings: 0.2% SDS aqueous solution, 50 r/min
From the text: as §1, §2

## CCN1CCN(Cc2cnc(Nc3cc(-c4cc(F)c5nc(C)n(C(C)C)c5c4)c(F)cn3)nc2)CC1 [Crystal form A of the compound of formula (I)] [5-((4-ethylpiperazin-1-yl)methyl)-N-(5-fluoro-4-(4-fluoro-1-isopropyl-2-methyl-1H-benzo[d]imidazol-6-yl)pyridin-2-yl)pyrimidin-2-amine]
[1]; 0 day
  Appearance: Off-white
  Related substance (%): 0.11%
  XRPD (solid form found): Crystal form A
[1]; 25° C./RH 92.5% Open, 5 day
  Appearance: Off-white
  Related substance (%): 0.09%
  XRPD (solid form found): Crystal form A
[1]; 25° C./RH 92.5% Open, 10 day
  Appearance: Off-white
  Related substance (%): 0.09%
  XRPD (solid form found): Crystal form A
[1]; 40° C./RH 75% Closed, 5 day
  Appearance: Off-white
  Related substance (%): 0.10%
  XRPD (solid form found): Crystal form A
[1]; 40° C./RH 75% Closed, 10 day
  Appearance: Off-white
  Related substance (%): 0.20%
  XRPD (solid form found): Crystal form A
[1]; 40° C./RH 75% Open, 5 day
  Appearance: Off-white
  Related substance (%): 0.10%
  XRPD (solid form found): Crystal form A
[1]; 40° C./RH 75% Open, 10 day
  Appearance: Off-white
  Related substance (%): 0.20%
  XRPD (solid form found): Crystal form A
[1]; 60° C. Closed, 5 day
  Appearance: Off-white
  Related substance (%): 0.09%
  XRPD (solid form found): Crystal form A
[1]; 60° C. Closed, 10 day
  Appearance: Off-white
  Related substance (%): 0.11%
  XRPD (solid form found): Crystal form A
[1]; 60° C. Open, 5 day
  Appearance: Off-white
  Related substance (%): 0.11%
  XRPD (solid form found): Crystal form A
[1]; 60° C. Open, 10 day
  Appearance: Off-white
  Related substance (%): 0.14%
  XRPD (solid form found): Crystal form A
[1]; 60° C. or light conditions, 10 days
  Change of properties (appearance, related substances, XRPD): no obvious change
[1]; Light (4500 LX±500 LX), 10 day
  Appearance: Off-white
  Related substance (%): 0.09%
  XRPD (solid form found): Crystal form A
Hygroscopicity test
  Hygroscopicity results: No or almost no moisture
  Moisture absorption weight gain (%): 0.003%
[2]
  Particle size distribution, 10% of the sample: ≤ 2.501 μm
  Particle size distribution, 50% of the sample: ≤ 10.432 μm
  Particle size distribution, 90% of the sample: ≤ 59.852 μm
[3]; Tablet thickness 0.9 mm, "/" means no tablet can be formed at that thickness
  Hardness of tablet: 2.97 kg
[3]; Tablet thickness 1.3 mm, "/" means no tablet can be formed at that thickness
  Hardness of tablet: 3.50 kg
[3]; Tablet thickness 1.8 mm
  Hardness of tablet: 5.40 kg
[3]; Tablet thickness 2.0 mm
  Hardness of tablet: 1.76 kg
[3]; Tablet thickness 2.4 mm
  Hardness of tablet: 0 kg
[3]
  Maximum tablet hardness: about 5.4 kg
Tablet disintegration
  Disintegration time: 4 min
[4]
  Time to complete dissolution: ≤ 60 min
[4]; 5 min
  Cumulative dissolution (%): 69.2%
[4]; 10 min
  Cumulative dissolution (%): 90.7%
[4]; 15 min
  Cumulative dissolution (%): 93.8%
[4]; 30 min
  Cumulative dissolution (%): 96.6%
[4]; 45 min
  Cumulative dissolution (%): 97.5%
[4]; 60 min
  Cumulative dissolution (%): 97.9%

## CCN1CCN(Cc2cnc(Nc3cc(-c4cc(F)c5nc(C)n(C(C)C)c5c4)c(F)cn3)nc2)CC1 [Compound of formula (I), 5-((4-ethylpiperazin-1-yl)methyl)-N-(5-fluoro-4-(4-fluoro-1-isopropyl-2-methyl-1H-benzo[d]imidazol-6-yl)pyridin-2-yl)pyrimidin-2-amine]
[1]; 0 day
  Appearance: Off-white
  Related substance (%): 0.14%
  XRPD (solid form found): Amorphous
[1]; 25° C./RH 92.5% Open, 5 day
  Appearance: Off-white
  Related substance (%): 0.14%
  XRPD (solid form found): Amorphous
[1]; 25° C./RH 92.5% Open, 10 day
  Appearance: Off-white
  Related substance (%): 0.19%
  XRPD (solid form found): Amorphous
[1]; 40° C./RH 75% Open, 10 day
  Appearance: Off-white
  Related substance (%): 0.19%
  XRPD (solid form found): Amorphous
[1]; 60° C. Open, 5 day
  Appearance: Light yellow
  Related substance (%): 0.67%
  XRPD (solid form found): Amorphous
[1]; 60° C. Open, 10 day
  Appearance: Light yellow
  Related substance (%): 1.15%
  XRPD (solid form found): Amorphous
[1]; Light (4500 LX±500 LX), 10 day
  Appearance: Light yellow
  Related substance (%): 10.54%
  XRPD (solid form found): Amorphous
[1]; Light (4500 LX±500 LX), 10 day, listed as amorphous form
  Related substance (%): up to 10.54%
Hygroscopicity test
  Hygroscopicity results: Moisture absorbability
  Moisture absorption weight gain (%): 6.3%
[3]; Tablet thickness 1.8 mm, listed as amorphous form
  Hardness of tablet: 2.75 kg
[3]; Tablet thickness 2.0 mm, listed as amorphous form
  Hardness of tablet: 0.59 kg
[3]; Tablet thickness 2.4 mm, listed as amorphous form
  Hardness of tablet: 0.72 kg
[3]; listed as amorphous form
  Maximum tablet hardness: about 2.75 kg
[3]; during the process of tabletting, listed as amorphous form
  Behaviour during tabletting (observation): prone to wall sticking; also recorded: prone to capping
Tablet disintegration
  Disintegration behaviour (observation): Absorbed water
Tablet disintegration; listed as Amorphous form
  Disintegration time: >30 min
[4]; 5 min, listed as Amorphous form
  Cumulative dissolution (%): 1.0%
[4]; 10 min, listed as Amorphous form
  Cumulative dissolution (%): 2.7%
[4]; 15 min, listed as Amorphous form
  Cumulative dissolution (%): 4.6%
[4]; 30 min, listed as Amorphous form
  Cumulative dissolution (%): 9.2%
[4]; 45 min, listed as Amorphous form
  Cumulative dissolution (%): 13.2%
[4]; 60 min, listed as Amorphous form
  Cumulative dissolution (%): 18.5%

From US11299474B2, “Crystal form targeting CDK4/6 kinase inhibitor” (XUANZHU BIOPHARMACEUTICAL CO., LTD., priority 2018, dated 2022)
